{
  "source": "patent US5362634A",
  "about": "“Process for producing A83543 compounds” (DowElanco, priority 1991, dated 1994)",
  "key": {"[1]": {"system": "mixture of soybean loopers (75%) and fall armyworm (25%)", "test": "Field trial, soybean loopers and fall armyworm on soybean", "type": "in vivo", "method": "(§1) A83543A was evaluated in field trials."}, "imported cabbage worm": {"system": "imported cabbage worm", "test": "Field trial, imported cabbage worm on sprouting broccoli", "type": "in vivo", "method": "as §1"}, "Nematospiroides dubius": {"system": "Nematospiroides dubius", "test": "Anthelmintic activity in mice experimentally infected with Nematospiroides dubius", "type": "in vivo", "settings": "single oral gavage at 500 mg/kg"}, "adult stable fly [2]": {"system": "adult stable fly", "test": "In vitro efficacy against adult stable fly", "settings": "Stomoxys calcitrans", "excerpt": "Tables XIX-XXI summarize in vitro studies with A83543A and A83543D."}, "adult stable fly [3]": {"system": "adult stable fly", "test": "Insecticidal assay in blood of sheep challenged with Haemonchus contortus, adult stable fly", "type": "in vivo", "set-up": "mortality: dose or concentration left out as unconfirmed", "settings": "Stomoxys calcitrans, read-out: Percent Insecticide Mortality; for mortality at 1 mg/kg: iv, 1 × 1 mg/kg IV", "method": "Blood is drawn from the guinea pigs at 30 minutes except as noted, and the samples of blood are centrifuged. Dental wicks are saturated with the blood serum, and then exposed in Petri dishes to adult stable flies; blow fly larvae are exposed in test tubes. After 24 and 48 hours, the insects are examined, and the number of dead are counted. The results of the tests are recorded as the percent of the insects which are killed.\nTests are carried out in sheep using the test method described supra in the Guinea Pig Test description. […]\n^b Amount (mg/kg) times number of doses administered\n^c Times postadministration at which blood is drawn"}, "blow fly larvae (LBF)": {"system": "blow fly larvae (LBF)", "test": "In vitro efficacy, exposure of LBF to chemically added serum samples", "excerpt": "^1 Percent insect mortality following 24 to 48 hrs. in vitro exposure\nto chemically added serum samples"}, "[4]": {"settings": "0 h, Day 0, A, 24-hour exposure"}, "[5]": {"settings": "0 h, Day 0, A, 48-hour exposure"}, "[6]": {"settings": "24 h, Day 1, A, 24-hour exposure"}, "[7]": {"settings": "24 h, Day 1, A, 48-hour exposure"}, "[8]": {"settings": "48 h, Day 2, A, 24-hour exposure"}, "[9]": {"settings": "72 h, Day 3, A, 24-hour exposure"}, "[10]": {"settings": "72 h, Day 3, A, 48-hour exposure"}, "[11]": {"settings": "120 h, Day 5, A, 48-hour exposure"}},
  "note": "Where two headings read alike, the source gives them in different places.",
  "data": [
    {"smiles": "CC[C@H]1CCC[C@H](O[C@H]2CC[C@H](N(C)C)[C@@H](C)O2)[C@@H](C)C(=O)C2=C[C@@H]3[C@@H](C=C[C@@H]4C[C@@H](O[C@@H]5O[C@@H](C)[C@H](OC)[C@@H](OC)[C@H]5OC)C[C@@H]34)[C@@H]2CC(=O)O1", "note": "[A83543A]", "values": [
      {"measurement": "activity in field trials", "setting": "[1]", "result": "showed activity"},
      {"measurement": "activity in field trials", "setting": "imported cabbage worm", "result": "showed activity"},
      {"measurement": "anthelmintic activity", "setting": "Nematospiroides dubius", "result": "did not show anthelmintic activity"},
      {"measurement": "mortality at 0.5 ppm", "setting": "adult stable fly [2]; 24 hour", "result": 0, "unit": "%"},
      {"measurement": "mortality at 0.5 ppm", "setting": "adult stable fly [2]; 48 hour", "result": 10, "unit": "%"},
      {"measurement": "mortality at 1 ppm", "setting": "adult stable fly [2]; 24 hour", "result": 10, "unit": "%"},
      {"measurement": "mortality at 1 ppm", "setting": "adult stable fly [2]; 48 hour", "result": 60, "unit": "%"},
      {"measurement": "mortality at 2 ppm", "setting": "adult stable fly [2]; 24 hour", "result": 70, "unit": "%"},
      {"measurement": "mortality at 2 ppm", "setting": "adult stable fly [2]; 48 hour", "result": 90, "unit": "%"},
      {"measurement": "mortality at 5 ppm", "setting": "adult stable fly [2]; 24 hour", "result": 80, "unit": "%"},
      {"measurement": "mortality at 5 ppm", "setting": "adult stable fly [2]; 48 hour", "result": 100, "unit": "%"},
      {"measurement": "mortality at 10 ppm", "setting": "adult stable fly [2]; 24 hour", "result": 100, "unit": "%"},
      {"measurement": "mortality at 10 ppm", "setting": "adult stable fly [2]; 48 hour", "result": 90, "unit": "%"},
      {"measurement": "mortality at 25 ppm", "setting": "adult stable fly [2]; 24 hour", "result": 100, "unit": "%"},
      {"measurement": "mortality at 25 ppm", "setting": "adult stable fly [2]; 48 hour", "result": 100, "unit": "%"},
      {"measurement": "mortality at 50 ppm", "setting": "adult stable fly [2]; 24 hour", "result": 100, "unit": "%"},
      {"measurement": "mortality at 50 ppm", "setting": "adult stable fly [2]; 48 hour", "result": 100, "unit": "%"},
      {"measurement": "mortality at 100 ppm", "setting": "adult stable fly [2]; 24 hour", "result": 100, "unit": "%"},
      {"measurement": "mortality at 100 ppm", "setting": "adult stable fly [2]; 48 hour", "result": 100, "unit": "%"},
      {"measurement": "mortality", "setting": "adult stable fly [3]; [4]", "result": 0, "unit": "%"},
      {"measurement": "mortality", "setting": "adult stable fly [3]; [5]", "result": 0, "unit": "%"},
      {"measurement": "mortality", "setting": "adult stable fly [3]; 5 h, A, 24-hour exposure", "result": 10, "unit": "%"},
      {"measurement": "mortality", "setting": "adult stable fly [3]; 24 h, 35 min, A, 24-hour exposure", "result": 10, "unit": "%"},
      {"measurement": "mortality", "setting": "adult stable fly [3]; 24 h, 5 hr, A, 24-hour exposure", "result": 10, "unit": "%"},
      {"measurement": "mortality", "setting": "adult stable fly [3]; 24 h, Day 0, A, 24-hour exposure", "result": 0, "unit": "%"},
      {"measurement": "mortality", "setting": "adult stable fly [3]; [6]", "result": 10, "unit": "%"},
      {"measurement": "mortality at 50 mg/kg", "setting": "adult stable fly [3]; [6]", "result": 0, "unit": "%"},
      {"measurement": "mortality", "setting": "adult stable fly [3]; [7]", "result": 90, "unit": "%"},
      {"measurement": "mortality at 50 mg/kg", "setting": "adult stable fly [3]; [7]", "result": 60, "unit": "%"},
      {"measurement": "mortality at 2 mg/kg", "setting": "adult stable fly [3]; 48 h, 25 × 2 mg/kg IR, Day 2, A, 24-hour exposure", "result": 20, "unit": "%"},
      {"measurement": "mortality", "setting": "adult stable fly [3]; [8]", "result": 20, "unit": "%"},
      {"measurement": "mortality", "setting": "adult stable fly [3]; [9]", "result": 0, "unit": "%"},
      {"measurement": "mortality", "setting": "adult stable fly [3]; [10]", "result": 70, "unit": "%"},
      {"measurement": "mortality", "setting": "adult stable fly [3]; [11]", "result": 30, "unit": "%"},
      {"measurement": "mortality at 50 mg/kg", "setting": "adult stable fly [3]; ip, 0 h, Day 0, A, 48-hour exposure", "result": 20, "unit": "%"},
      {"measurement": "mortality at 50 mg/kg", "setting": "adult stable fly [3]; ip, 35 min, A, 48-hour exposure", "result": 0, "unit": "%"},
      {"measurement": "mortality at 50 mg/kg", "setting": "adult stable fly [3]; ip, 5 h, A, 48-hour exposure", "result": 10, "unit": "%"},
      {"measurement": "mortality at 50 mg/kg", "setting": "adult stable fly [3]; ip, 24 h, 35 min, A, 24-hour exposure", "result": 0, "unit": "%"},
      {"measurement": "mortality at 50 mg/kg", "setting": "adult stable fly [3]; ip, 24 h, 5 hr, A, 24-hour exposure", "result": 0, "unit": "%"},
      {"measurement": "mortality at 50 mg/kg", "setting": "adult stable fly [3]; ip, 24 h, Day 0, A, 24-hour exposure", "result": 0, "unit": "%"},
      {"measurement": "mortality at 50 mg/kg", "setting": "adult stable fly [3]; ip, 24 h, Day 1, A, 24-hour exposure", "result": 0, "unit": "%"},
      {"measurement": "mortality at 50 mg/kg", "setting": "adult stable fly [3]; ip, 24 h, Day 1, A, 48-hour exposure", "result": 0, "unit": "%"},
      {"measurement": "mortality at 50 mg/kg", "setting": "adult stable fly [3]; ip, 24 h, Day 2, A, 24-hour exposure", "result": 10, "unit": "%"},
      {"measurement": "mortality at 50 mg/kg", "setting": "adult stable fly [3]; ip, 24 h, Day 3, A, 24-hour exposure", "result": 0, "unit": "%"},
      {"measurement": "mortality at 50 mg/kg", "setting": "adult stable fly [3]; ip, 24 h, Day 4, A, 24-hour exposure", "result": 10, "unit": "%"},
      {"measurement": "mortality at 50 mg/kg", "setting": "adult stable fly [3]; ip, 24 h, Day 5, A, 24-hour exposure", "result": 0, "unit": "%"},
      {"measurement": "mortality at 50 mg/kg", "setting": "adult stable fly [3]; ip, 48 h, Day 2, A, 48-hour exposure", "result": 30, "unit": "%"},
      {"measurement": "mortality at 50 mg/kg", "setting": "adult stable fly [3]; ip, 72 h, Day 3, A, 48-hour exposure", "result": 10, "unit": "%"},
      {"measurement": "mortality at 50 mg/kg", "setting": "adult stable fly [3]; ip, 96 h, Day 4, A, 48-hour exposure", "result": 20, "unit": "%"},
      {"measurement": "mortality at 50 mg/kg", "setting": "adult stable fly [3]; ip, 120 h, Day 5, A, 48-hour exposure", "result": 0, "unit": "%"},
      {"measurement": "mortality at 1 mg/kg", "setting": "adult stable fly [3]; [4]", "result": 0, "unit": "%"},
      {"measurement": "mortality at 1 mg/kg", "setting": "adult stable fly [3]; [5]", "result": 0, "unit": "%"},
      {"measurement": "mortality at 1 mg/kg", "setting": "adult stable fly [3]; 35 min, 35 min, A, 24-hour exposure", "result": 10, "unit": "%"},
      {"measurement": "mortality at 1 mg/kg", "setting": "adult stable fly [3]; 35 min, 35 min, A, 48-hour exposure", "result": 10, "unit": "%"},
      {"measurement": "mortality at 1 mg/kg", "setting": "adult stable fly [3]; 5 h, 5 hr, A, 24-hour exposure", "result": 0, "unit": "%"},
      {"measurement": "mortality at 1 mg/kg", "setting": "adult stable fly [3]; 5 h, 5 hr, A, 48-hour exposure", "result": 20, "unit": "%"},
      {"measurement": "mortality at 1 mg/kg", "setting": "adult stable fly [3]; [6]", "result": 0, "unit": "%"},
      {"measurement": "mortality at 1 mg/kg", "setting": "adult stable fly [3]; [7]", "result": 0, "unit": "%"},
      {"measurement": "mortality at 1 mg/kg", "setting": "adult stable fly [3]; [8]", "result": 0, "unit": "%"},
      {"measurement": "mortality at 1 mg/kg", "setting": "adult stable fly [3]; 48 h, Day 2, A, 48-hour exposure", "result": 0, "unit": "%"},
      {"measurement": "mortality at 1 mg/kg", "setting": "adult stable fly [3]; [9]", "result": 0, "unit": "%"},
      {"measurement": "mortality at 1 mg/kg", "setting": "adult stable fly [3]; [10]", "result": 0, "unit": "%"},
      {"measurement": "mortality at 1 mg/kg", "setting": "adult stable fly [3]; 96 h, Day 4, A, 24-hour exposure", "result": 0, "unit": "%"},
      {"measurement": "mortality at 1 mg/kg", "setting": "adult stable fly [3]; 96 h, Day 4, A, 48-hour exposure", "result": 0, "unit": "%"},
      {"measurement": "mortality at 1 mg/kg", "setting": "adult stable fly [3]; 120 h, Day 5, A, 24-hour exposure", "result": 0, "unit": "%"},
      {"measurement": "mortality at 1 mg/kg", "setting": "adult stable fly [3]; [11]", "result": 0, "unit": "%"},
      {"measurement": "Percent insect mortality", "setting": "blow fly larvae (LBF); 0.312 ppm, 24 hr", "result": 25, "unit": "%"},
      {"measurement": "Percent insect mortality", "setting": "blow fly larvae (LBF); 0.312 ppm, 48 hr", "result": 50, "unit": "%"},
      {"measurement": "Percent insect mortality", "setting": "blow fly larvae (LBF); 0.625 ppm, 24 hr", "result": 60, "unit": "%"},
      {"measurement": "Percent insect mortality", "setting": "blow fly larvae (LBF); 0.625 ppm, 48 hr", "result": 90, "unit": "%"},
      {"measurement": "Percent insect mortality", "setting": "blow fly larvae (LBF); 1.25 ppm, 24 hr", "result": 100, "unit": "%"}
    ]}
  ]
}
